Experimental data reported in patent publication US10875861B1, “Therapeutic compounds” (Rutgers, The State University of New Jersey, priority 2017, dated 2020).
pEC50: −log10 of the molar value.

Columns and labels:
[1] = test system: BMI-1 and ubiquitinated histone H2A in primary glioblastoma cells; assay: Modulation / dynamics of BMI-1 and downstream targets in GBM cells (Western blotting); assay type: cell-based, human; conditions: GBM cells, B compounds, 72 hours
Protocol: Different GBM cells were treated with DMSO or different concentrations of the B compounds for 72 hours. Cells were lysed in Cell Lysis Buffer (Cell Signaling, #9803) supplemented with Protease Inhibitor Cocktail (Sigma, #P8340), spun down for 30 minutes at 4° C., after which the supernatant was collected at every time point indicated. Western blotting analysis was performed on all samples as described above. BMI-1 loss started at 6-12 h, coinciding with an upper shift and hyper-phosphorylation of BMI-1 at 12-24 h and complete depletion at 72 h.
To study the compound dynamic activity against GBM spheres, GBMs were tested with exemplary compounds. Different GBM cells were treated with DMSO or different concentrations of the inhibitors for 72 hours. Cells were lysed in Cell Lysis Buffer (Cell Signaling, #9803) supplemented with Protease Inhibitor Cocktail (Sigma, #P8340), spun down for 30 minutes at 4° C., after which the supernatant was collected at every time point indicated. Western blotting analysis was performed on all samples as described above. […] BMI-1 loss started at 6-12 h, coinciding with an upper shift and hyper-phosphorylation of BMI-1 at 12-24 h and complete depletion at 72 h. […] This is expected since BMI-1 is known to suppress p21. BMI-1 inhibition could be reversed using phosphatase treatment, moreover, when proteasomal inhibitor is added to treated cells after 24 h, BMI-1 is locked in the phosphorylated state, therefore showing that the phosphorylation event precedes BMI-1 degradation. The phosphorylation was independent of p38 kinase activation, as when we added […], the p38 inhibitor to the cultured cells upon treatment with the BMI-1 inhibitor, the combined treatment could not reverse the effects of RU-A15 on BMI-1 inhibition.

[2] = test system: glioblastoma cancer cell line; assay: MTT viability assay with glioblastoma cancer cell line (Test A); assay type: cell-based, human; conditions: Homo sapiens, 72 hours
Source text: To generate primary patient-derived GBM models for testing small molecule inhibitors, fresh primary tissues were received from patients undergoing surgical resection of WHO grade IV gliomas at Robert Wood Johnson University Hospital (RWJUH) under an approved IRB protocol. De-identified primary human GBM samples were delivered to the laboratory. Cells were obtained through mechanical dissociation of the tumor tissue using a blade and plated in DMEM/F12 medium (Gibco) in the presence of B-27 Supplement (Gibco, #17504-044), 20 ng/ml of human recombinant EGF (Gibco, #PHG0311L) and human recombinant FGF (Peprotech, #AF-100-18B). The following day, the culture was collected, incubated with Accutase (Gibco, #A11105-01) at 37° C. and passed through a 26G×⅜ needle (BD Precision Glide, #305110) to obtain a single cell suspension and re-plated in the same supplemented medium. Cells were cultured at low (5-6) passages in serum-free sphere 3D culture with mitogens that preserve the clonogenic stemness phenotype. […] different primary GBM cells (GBM #46, GBM #50, and GBM #76) were tested for cell viability after treatment with the inhibitors. Cell viability was measured using MTT assay. Briefly, one thousand cells per well were seeded in 96-well plates and exposed to drug in a total of 200 uL media. After 72 hours, 50 uL of stock concentration of 2.5 mg/mL 3-(4,5-dimethylthiazol-2-yl)-2,5-diphenyltetrazolium bromide (MTT) (Sigma, #M2128) dissolved in PBS was added to wells and incubated at 37° C. for 4 hours; read in a […] plate reader at 570 nm and compared to DMSO and untreated cells. The IC50 (defined as the concentration at which 50% of the cells were viable) was determined from the curve.
Accordingly, compounds of the invention may be useful as therapeutic agents for the treatment of cancer.
To generate primary patient-derived GBM models for testing small molecule inhibitors, fresh primary tissues were received from patients undergoing surgical resection of WHO grade IV gliomas at Robert Wood Johnson University Hospital (RWJUH) under an approved RB protocol. De-identified primary human GBM samples were delivered to the laboratory. Cells were obtained through mechanical dissociation of the tumor tissue using a blade and plated in DMEM/F12 medium (Gibco) in the presence of B-27 Supplement (Gibco, #17504-044), 20 ng/ml of human recombinant EGF (Gibco, #PHG0311L) and human recombinant FGF (Peprotech, #AF-100-18B). […] Cell viability was measured using MTT assay. […] After 72 hours, 50 uL of stock concentration of 2.5 mg/mL 3-(4,5-dimethylthiazol-2-yl)-2,5-diphenyltetrazolium bromide (MTT) (Sigma, #M2128) dissolved in PBS was added to wells and incubated at 37° C. for 4 hours; read in a […] plate reader at 570 nm and compared to DMSO and untreated cells. […]

pEC50 [2]: 5.30
Structure (SMILES): COc1ccc(Nc2nc(-c3nc4ncccn4c3C)cs2)cc1 [Example B1, N-(4-methoxyphenyl)-4-(3-methylimidazo[1,2-a]pyrimidin-2-yl)thiazol-2-amine]
modulation of BMI-1 (Test B) [1]: modulation of BMI-1 | modulation of ubiquitinated histone H2A (Test B) [1]: modulation of downstream target ubiquitinated histone H2A
